Patent publication US20120128630A1, “1-(6 MEMBERS AZO-HETEROCYCLIC)-PYRROLIN-2-ONE COMPOUNDS AS INHIBITORS OF HEPATITIS C NS5B POLYMERASE, THE PHARAMACEUTICAL COMPOSITION THEREOF AND THEIR THERAPEUTIC USE” (priority 2009, published 2012)
Like-named read-outs stand apart in the source and are kept apart here.

What was measured:
[1] = system: HCV replicon Luc Neo ET; assay: Luc Neo ET Replicon assay; assay type: cell-based, Hepatitis C virus; conditions: Table 3, titled RdRp enzyme assay results, EC50_Replicon LucneoET, 72 hours with compound, luciferase
Protocol: Human Hepatoma Huh-7 cell line was maintained in DMEM/HAMF-12 supplemented with 10% SVF, 4 mM glutamine, […] Na pyruvate, 1% penistreptomycine. HCV replicon containing Huh-7 cell lines Huh-9.13 and Luc Neo ET (Reblikon) were maintained in DMEM supplemented with 10% SVF, 2 mM glutamine, and 1×NEAA, 100 U/ml penicillin, and 100 μg/ml streptomycine. Replicon cells were maintained in medium supplemented with 1 mg/ml G418 for replicon Huh-9.13 and 0.5 mg/ml for Luc Neo et replicon unless indicated otherwise. Huh-7 and HCV replicon cell lines were maintained at 37° C. and 5% CO2 in a humidified atmosphere. Cells were dissociated at sub confluence with trypsin EDTA 1×.
Replicon Luc Neo ET is a bicistronic expression constructs (Lohmann et al, 1999, Science 285, 110-113). In brief, the structural genes of the HCV genome were replaced by heterologous sequences; the gene encoding the neomycin phosphotransferase (NPT) and the internal ribosome entry site (IRES) of the encephalomyocarditis virus (EMCV). The bicistronic construct is therefore composed of the following elements: HCV-IRES nucleotides 1-389, the NPT gene, the EMCV-IRES directing translation of downstream HCV sequences from NS2 or NS3 up to the authentic 3′ end of the genome. HCV Polyprotein harbours the cell culture adaptive mutations E1202G, T1280I, K1846T. G418-resistance is only possible with cells containing high amounts of replicon.
Cells were dissociated the day before addition of compounds and seeded in 96 well-plates at a final concentration of 77 777.77 cells.ml^−1.well^−2 in 90 μl final volume of culture medium per well and were maintained at 37° C. and 5% CO2 in a humidified atmosphere for 24 hours. 10 μl of compounds to be tested were added 24 hours after seeding. Final concentration of DMSO was 1%. Cells were incubated in the presence of compounds for 72 hours after which expression of firefly luciferase reporter gene was quantified. Briefly, culture medium was removed and cells were lysed by addition of 100 μl of lysis buffer containing 125 mM Tris Phosphate ph 7.8, 10 mM EDTA, 5 mM DTT, 50% glycerol and 5% Triton. Plates were vortexed 10 min at 1300 rpm. Cell lysat was transferred in OpaqueWhite Assay 96 well Flat Bottom plates. 100 μl of luciferin solution 1× were added to each well. Luciferin solution contained 40 mM Tris Phosphate ph 7.8, 0.2 mM EDTA, 67 mM DTT, 2.14 mM MgCl2, 5.4 mM MgSO4, 4.7×10^−4 M luciferin, 5.3×10^−4 M ATP and 2.7×10^−4 M Acetyl co enzyme A. Luminescence was immediately measured with Berthold Microlumat Plus LB 96V luminometer with an integration of 0.5 sec Inhibition was calculated using the formula:
% inhibition=1−[(RLUsample−RLUbackground)/(RLUsignal−RLUbackground)]

[2] = target: T1, HCV NS5B genotype 1b (Hepatitis C virus genotype 1b, UniProt Q9WMX2); assay: 3D-SCREEN assay (NS5B 3D-Screen platform, luciferase reporter gene); assay type: cell-based; conditions: Table 2, titled Replicon assay results
T1 construct: The protein was expressed with a 21 amino acid C-terminal deletion to remove transmembrane domain; expressed in transfected cells; host or cells: Huh-7
Procedure, shortened: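 Huh-7 cells transiently co-transfected with NS5BΔ21/Gal4-DBD, 3D-Sensor peptide I4/VP16 and firefly luciferase reporter. Compounds added 2 h after seeding, 1% DMSO final, 24 h incubation. Luciferase luminescence read; % inhibition relative to no-compound signal.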

| SMILES | EC50 ([1]; Hepatitis C virus, 72 h) [nM] | melting point [°C] | EC50 ([2]; EC50_3DS_NS5B) [nM] | EC50 [1] [nM] | EC50 ([2]; read-out: EC50_3DS_NS5B) [nM] |
| --- | --- | --- | --- | --- | --- |
| Cc1ccc(N2C(=O)C(O)=C(C(=O)c3ccc(C(C)C)cc3)C2c2ccc(OC3CC3)cc2)nn1 (stereo not drawn) [Example 120, 5-(4-cyclopropoxy-phenyl)-3-hydroxy-4-(4-isopropyl-benzoyl)-1-(6-methyl-pyridazin-3-yl)-1,5-dihydro-pyrrol-2-one] | < 1000 | 285 to 288 | < 1000 | – | – |
| Cc1ccc(N2C(=O)C(O)=C(C(=O)c3ccc(C(C)(C)C)cc3)C2c2ccc(OC(F)(F)F)cc2)nn1 (stereo not drawn) [Example 123, 4-(4-tert-butyl-benzoyl)-3-hydroxy-1-(6-methyl-pyridazin-3-yl)-5-(4-trifluoromethoxy-phenyl)-1,5-dihydro-pyrrol-2-one] | < 1000 | 262 to 265 | < 1000 | – | – |
| Cc1ccc(N2C(=O)C(O)=C(C(=O)c3ccc(C4CCCCC4)cc3)C2c2ccc(OC(F)(F)F)cc2)nn1 (stereo not drawn) [Example 125, 4-(4-cyclohexyl-benzoyl)-3-hydroxy-1-(6-methyl-pyridazin-3-yl)-5-(4-trifluoromethoxy-phenyl)-1,5-dihydro-pyrrol-2-one] | < 10000 | 283 to 286 | < 10000 | – | – |
| Cc1cnc(N2C(=O)C(O)=C(C(=O)c3ccc(C(C)C)cc3)C2c2ccc(OC(F)(F)F)cc2)cn1 (stereo not drawn) [Example 128, 3-hydroxy-4-(4-isopropyl-benzoyl)-1-(5-methyl-pyrazin-2-yl)-5-(4-trifluoromethoxy-phenyl)-1,5-dihydro-pyrrol-2-one] | < 10000 | 266 to 268 | < 1000 | – | – |
| COc1ccc(N2C(=O)C(O)=C(C(=O)c3ccc(C(C)C)cc3)C2c2ccc(OC(F)(F)F)cc2)nn1 (stereo not drawn) [Example 129, 3-hydroxy-4-(4-isopropyl-benzoyl)-1-(6-methoxy-pyridazin-3-yl)-5-(4-trifluoromethoxy-phenyl)-1,5-dihydro-pyrrol-2-one] | < 10000 | 271 | < 1000 | – | – |
| CC(C)c1ccc(C(=O)C2=C(O)C(=O)N(c3cccn(C)c3=O)C2c2ccc(OC(F)(F)F)cc2)cc1 (stereo not drawn) [Example 130, 3-[3-hydroxy-4-(4-isopropyl-benzoyl)-2-oxo-5-(4-trifluoromethoxy-phenyl)-2,5-dihydro-pyrrol-1-yl]-1-methyl-1H-pyridin-2-one] | < 10000 | 207 | < 10000 | – | – |
| Cc1ccc(N2C(=O)C(O)=C(C(=O)c3ccc(CC(C)C)cc3)C2c2ccc(OC(F)(F)F)cc2)nn1 (stereo not drawn) [Example 131, 3-hydroxy-4-(4-isobutyl-benzoyl)-1-(6-methyl-pyridazin-3-yl)-5-(4-trifluoromethoxy-phenyl)-1,5-dihydro-pyrrol-2-one] | < 10000 | 260 | < 1000 | – | – |
| Cc1ccc(N2C(=O)C(Cl)=C(C(=O)c3ccc(C(C)C)cc3)C2c2ccc(OC(F)(F)F)cc2)nn1 (stereo not drawn) [Example 138, 3-chloro-4-(4-isopropyl-benzoyl)-1-(6-methyl-pyridazin-3-yl)-5-(4-trifluoromethoxy-phenyl)-1,5-dihydro-pyrrol-2-one] | < 10000 | 293 | < 10000 | – | – |
| C=C(C)c1ccc(C(=O)C2=C(O)C(=O)N(c3ccc(C)nn3)C2c2ccc(OC(F)(F)F)cc2)cc1 (stereo not drawn) [Example 142, 3-hydroxy-4-(4-isopropenyl-benzoyl)-1-(6-methyl-pyridazin-3-yl)-5-(4-trifluoromethoxy-phenyl)-1,5-dihydro-pyrrol-2-one] | < 10000 | 253 | < 1000 | – | – |
| Cc1ccc(N2C(=O)C(O)=C(C(=O)c3ccc(C(C)C)cc3)C2c2ccc(OC3CCOCC3)cc2)nn1 (stereo not drawn) [Example 143, 3-hydroxy-4-(4-isopropyl-benzoyl)-1-(6-methyl-pyridazin-3-yl)-5-[4-(tetrahydro-pyran-4-yloxy)-phenyl]-1,5-dihydro-pyrrol-2-one] | < 10000 | 275 | < 10000 | – | – |
| CC(C)c1ccc(C(=O)C2=C(O)C(=O)N(c3ccc(O)nn3)C2c2ccc(OC(F)(F)F)cc2)cc1 (stereo not drawn) [Example 159, 3-hydroxy-1-(6-hydroxy-pyridazin-3-yl)-4-(4-isopropyl-benzoyl)-5-(4-trifluoromethoxy-phenyl)-1,5-dihydro-pyrrol-2-one] | < 10000 | 255 | < 1000 | – | – |
| C=C(C)c1ccc(C2C(C(=O)c3ccc(C(C)C)cc3)=C(O)C(=O)N2c2ccc(C)nn2)cc1 (stereo not drawn) [Example 160, 3-hydroxy-5-(4-isopropenyl-phenyl)-4-(4-isopropyl-benzoyl)-1-(6-methyl-pyridazin-3-yl)-1,5-dihydro-pyrrol-2-one] | < 10000 | 274 | < 1000 | – | – |
| CC(C)c1ccc(C(=O)C2=C(O)C(=O)N(c3ccc(OCc4ccccc4)nn3)C2c2ccc(OC(F)(F)F)cc2)cc1 (stereo not drawn) [Example 161, 1-(6-benzyloxy-pyridazin-3-yl)-3-hydroxy-4-(4-isopropyl-benzoyl)-5-(4-trifluoromethoxy-phenyl)-1,5-dihydro-pyrrol-2-one] | < 10000 | 269 | < 1000 | – | – |
| Cc1ccc(N2C(=O)C(O)=C(C(=O)c3ccc(C(C)C)cc3)C2c2ccc(OC(C)C)nc2)nn1 (stereo not drawn) [Example 165, 3-hydroxy-5-(6-isopropoxy-pyridin-3-yl)-4-(4-isopropyl-benzoyl)-1-(6-methyl-pyridazin-3-yl)-1,5-dihydro-pyrrol-2-one] | < 1000 | 282 | < 1000 | – | – |
| Cc1ccc(N2C(=O)C(O)=C(C(=O)c3ccc(C(C)C)cc3)C2c2ccc(OC(C)C)nc2)nn1.Cl (stereo not drawn) [Example 167, 3-hydroxy-5-(6-isopropoxy-pyridin-3-yl)-4-(4-isopropyl-benzoyl)-1-(6-methyl-pyridazin-3-yl)-1,5-dihydro-pyrrol-2-one; hydrochloride] | – | 280 | – | < 1000 | < 1000 |
| Cc1ccc(N2C(=O)C(O)=C(C(=O)c3ccc(C(C)C)cc3)[C@H]2c2ccc(OC(F)(F)F)cc2)nn1 [Example 188, 3-hydroxy-4-(4-isopropyl-benzoyl)-1-(6-methyl-pyridazin-3-yl)-5(R)-(4-trifluoromethoxy-phenyl)-1,5-dihydro-pyrrol-2-one] | < 100 | 217 | < 100 | – | – |
| Cc1ccc(N2C(=O)C(O)=C(C(=O)c3ccc(C(C)C)cc3)[C@@H]2c2ccc(OC(F)(F)F)cc2)nn1 [Example 189, 3-hydroxy-4-(4-isopropyl-benzoyl)-1-(6-methyl-pyridazin-3-yl)-5(S)-(4-trifluoromethoxy-phenyl)-1,5-dihydro-pyrrol-2-one] | < 10000 | 221 | < 10000 | – | – |
| Cc1ccc(N2C(=O)C(O)=C(C(=O)c3ccc(C(C)C)cc3)[C@H]2c2ccc(C(F)(F)F)cc2)nn1 [Example 191, 3-hydroxy-4-(4-isopropyl-benzoyl)-1-(6-methyl-pyridazin-3-yl)-5(R)-(4-trifluoromethyl-phenyl)-1,5-dihydro-pyrrol-2-one] | < 100 | 251 | < 100 | – | – |
| Cc1ccc(C(=O)C2=C(O)C(=O)N(c3ccc(C)nn3)[C@@H]2c2ccc(OC(F)(F)F)cc2)cc1 [Example 199, 3-hydroxy-4-(4-methyl-benzoyl)-1-(6-methyl-pyridazin-3-yl)-5(R)-(4-trifluoromethoxy-phenyl)-1,5-dihydro-pyrrol-2-one] | < 1000 | 215 | < 1000 | – | – |
